Experimental data reported in patent publication US20070191337A1, “Annellated carbamyl-aza-heterocyclic compounds, a focused library, pharmaceutical compositions, and methods of preparing the same” (priority 2004, published 2007).

Experiments:
Test in all cases: Anticancer activity: growth inhibition in tissue culture (Alamar Blue)
Format in all cases: cell-based
[1] = test system: DLD-1 (adenocarcinoma of the rectum); settings: DLD-1 cells, 30 μM, 48 hours, Alamar Blue fluorescence; result in words
Protocol: (§1) A focused library was compiled to include compounds of general formula 1, as shown in Tables 1.01 to 1.23, and tested for anticancer activity. Anticancer activity of the compounds was measured by their capacity to kill cancerous cells in a tissue culture. Three cell lines representing three types of cancerous tumors were chosen, in particular: DLD-1 (adenocarcinoma of the rectum), DU-145 ([…]), and T-47D (tumor of the mammary gland). All the cell cultures were received from the American Tissue Culture Collection (ATCC). The efficiency of the compounds was assessed by measuring the number of […] cells following treatment with the test compounds over 48 hours. The cells were seeded at a concentration of 5*10^3 cells per hole of a standard 96-hole plate and left overnight for cells to be attached to the hole bottom. Whereupon the test compounds were added to the cells at an ultimate concentration of 30 μM, and the plates were left for 48 hours in an incubator at 37° C. maintaining the 5% CO2/95% air atmosphere at 100% humidity. At the end of the experiment, the medium with the compounds was sucked out of all the holes, and the holes were rinsed twice with physiological solution. […] of Alamar Blue solution was added to each hole, and fluorescence (λex=531 nm, λem=589 nm) was measured immediately after addition and 2 hours thereafter. The rate of fluorescence growth was proportional to the number of cells that survived incubation with the test compounds [John O'Brien, Ian Wilson, Terry Orton and Francois Pognan, “Investigation of the Alamar Blue (resazurin) Fluorescent Dye for the Assessment of Mammalian Cell Cytotoxicity.” Eur. J. Biochem. 2000,b 267, 5421-5426]. The proportion of cell growth suppression was found from the following equation: % of growth inhibition=((ΔΦk−ΔΦi)/ΔΦk)*100%, wherein: ΔΦ means increase in fluorescence over […] following addition of the Alamar Blue solution, and the subscripts […] and i mean, respectively, control cells (grown without any compounds added) and experimental cells (grown in the presence of test compounds).

[2] = test system: DU-145 (carcinoma of the brain); settings: DU-145 cells, 30 μM, 48 hours, Alamar Blue fluorescence; result in words
Protocol: as §1

[3] = test system: T-47D (tumor of the mammary gland); settings: T-47D cells, 30 μM, 48 hours, Alamar Blue fluorescence; result in words
Protocol: as §1

`CCc1ccc(-c2cc3n(n2)CC(C)(C(=O)NC2CCCCC2)N(CCN2CCCC2)C3=O)cc1` (stereo not drawn) [1.5(3){50}, cyclohexylamide of 6-methyl-4-oxo-5-(2-pyrrolidin-1-yl-ethyl)-2-(4-ethylphenyl)-4,5,6,7-tetrahydropyrazolo[1,5-a]pyrazine-6-carbonic acid] was tested. Which “suppression of tumor cell growth (% of growth inhibition)” value (shortened to “suppression … (% of growth inhibition)”) [1] did it give?
Its value is “equally good at suppressing cell growth in all three cancer tumors”.

What about the “suppression … (% of growth inhibition)” value [2] of the same compound?
The value was “equally good at suppressing cell growth in all three cancer tumors”.

And the “suppression … (% of growth inhibition)” value [3]?
The value was “equally good at suppressing cell growth in all three cancer tumors”.
